Reference: PMC10947113, “A Bivalent Activatable Fluorescent Probe for Screening and Intravital Imaging of Chemotherapy‐Induced Cancer Cell Death” (Angewandte Chemie (Weinheim an Der Bergstrasse, Germany), 2021)

Experiments:
8 cancer cell lines = experiment: Classification of drugs by Apotracker Red (apoptosis) and CellTrace Violet (proliferation) staining; format: cell-based; conditions: 8 cancer cell lines, 24 h treatment, flow cytometry
Protocol: To corroborate the versatility of Apotracker Red, we built a screening platform including a total of 8 cancer cell lines of variable origin and pathogenesis: breast (MCF7, MDA‐MB231 and MMTV‐PyMT (mouse mammary tumour virus‐polyoma middle tumour‐antigen)[23]), lung (A549), prostate (PC3 and LnCap), blood cells (Jurkat) and colon (HT29). All cell lines were cultured under standard conditions and seeded with the fluorescent proliferation marker CellTrace^TM Violet (CV) in 96‐well plates (10–20×10^3 cells/well) for high‐throughput flow cytometry. After drug treatment (i.e., drug addition plus 24 h incubation), Apotracker Red was incubated for 10 min and fluorescence readings were directly acquired without any additional processing steps (Figure 3 a). […] Using this platform, we tested a collection of FDA‐approved drugs in all cancer cell lines and compared their ability to induce apoptosis using Apotracker Red as the reporter. Specifically, we included DNA alkylation agents (e.g., cyclophosphamide, cisplatin, 5‐fluorouracil, gemcitabine, temozolomide), proteasomal and mitotic inhibitors (e.g., bortezomib, docetaxel, paclitaxel) and antagonists of specific proteins (e.g., dexamethasone, tamoxifen; Figure 3 b).
First, all drugs were tested in the 8 different cell lines to determine the percentages of Apotracker Red‐stained apoptotic cells compared to no treatment (Figure 3 c; Figure S8). […] All 5 drugs were tested at multiple concentrations (from 1 to 100 μM) and with incubation times up to 48 h to examine whether drugs could block cell proliferation at late stages (Figures S9–S13).
Figure S8. Heatmap of relative inhibition of cell proliferation (as indicated by staining of CellTraceTM Violet) after treatment of cancer cell lines with different drugs. Data presented as an average of 3 independent experiments. Cells were stained on day 0 with CellTraceTM Violet (1 µM) and mean fluorescence intensities were determined on the 5L LSR after 24 h of treatment with the different drugs. […]
Cell culture. MCF-7, A549, LnCap, MDA-MB-231, Jurkat T cells and PC3 cells were obtained from American Type Culture Collection (ATCC). HT29 cells were purchased from Merck (S i g m a Aldrich, UK). Mouse Mammary Tumour Virus –Polyoma Middle T antigen (MMTV -PyMT) cells were provided by the lab of Mikala Egeblad (CSHL, US). MMTV-PyMT, MCF-7, LnCap, MDA-MB-231 and Jurkat T cells were cultured in Roswell Park Memorial Institute (RPMI) 1640 Medium supplemented with 10% fetal bovine serum (FBS) , 100 U mL-1 penicillin and 0.1 mg mL-1 streptomycin. A549 and PC3 cells were cultured in Dublecco’s modified Eagle’s medium (DMEM) supplemented with 10% fetal bovine serum (FBS), 100 U mL-1 penicillin and 0.1 mg […]
Flow cytometry drug screen.

[1] = tested on: MMTV-PyMT mammary gland tumours; experiment: Intravital imaging and ex vivo quantification of cisplatin-induced apoptosis; format: in vivo, mouse
Source text: Optical intravital imaging is increasingly used for the preclinical evaluation of anticancer drugs in vivo. Although imaging modalities like computed tomography, positron emission tomography and magnetic resonance imaging can help to visualise whole intact organs in a non‐invasive manner,[26] they lack the spatiotemporal resolution needed to study dynamic interactions between individual tumour and stromal cells. This feature is critical to understand the mechanism of action of anticancer drugs and how they can affect interactions between cancer cells and immune cells in the tumour microenvironment.[27] Intravital imaging heavily relies on the acquisition of fluorescence signals using multiphoton microscopy, which provides cellular resolution with deep tissue penetration (≈500 μm) and minimal photodamage.[28] […] First, we analysed the chemical stability of Apotracker Red for in vivo studies by incubating the probe in mouse serum. […] When primary tumours measured around 0.5–1 cm in diameter, we administered cisplatin intraperitoneally (10 mg kg^−1). […]
were centrifuged (300 g, 5 min, r.t.), washed once with PBS before addition of 0.05% Trypsin, 0.02% ethylenediaminetetraacetic acid (EDTA) in Hank’s balanced salt solution (HBSS) and incubation at 37°C for 5 min. […] Histograms and mean fluorescence intensities of apoptotic cells were measured on a 5L LSR flow cytometer under the following […]

## N.N.[Cl][Pt][Cl] [cisplatin]
8 cancer cell lines
  drug group by Apotracker Red (apoptosis) and CV (proliferation) staining: induced apoptosis and decreased cell proliferation
[1]; MMTV-PyMT;ACTB-ECFP mice, cisplatin 10 mg kg^-1 intraperitoneally, Apotracker Red 650 ng i.v. after 72 h, two-photon intravital imaging
  Apotracker Red fluorescence in tumours of cisplatin-treated mice (cancer cell death): strong red fluorescent signals indicating cancer cell death induced by the drug
[1]; cisplatin 10 μg g^-1 i.p., day 3, at least 5 tumour areas per mouse, mean±SEM, one-way ANOVA p<0.05
  relative percentages of apoptotic cells in tumours, ex vivo quantification: significant differences
